{"source": "paper PMC8269107", "about": "“Lipidation of Temporin-1CEb Derivatives as a Tool for Activity Improvement, Pros and Cons of the Approach” (International Journal of Molecular Sciences, 2021)", "system": "S. aureus", "assay": "LIVE/DEAD BacLight bacterial viability", "format": "cell-based, Staphylococcus aureus", "conditions": "0.39-25 µg/mL, 3 and 6 h of co-incubation", "procedure": "Evaluation of the bacterial viability in the presence or absence of the tested compounds was performed according to the protocols developed for the laboratory kit LIVE/DEAD ®® BacLight TM Bacterial Viability Kits (Molecular Probes Europe BV, Amsterdam, The Netherlands). Briefly, late log phase cultures of E. coli and S. aureus in Luria-Bertani broth were harvested by centrifugation at 4000× g, the supernatant was removed, and pellets were resuspended in sterile water solution of 0.85% NaCl. Again, bacterial cells were centrifuged under the same conditions. In order to remove traces of growth, the medium washing step was repeated twice. At the end, pellets were resuspended in a fresh sterile 0.85% NaCl solution and diluted, yielding suspensions of E. coli, containing about 2 × 10^8 CFU/mL, and S. aureus with about 2 × 10^7 CFU/mL. Subsequently, 90 µL of bacterial suspensions (E. coli or S. aureus, respectively) were transferred to 96-well microtiter plates and 10 µL of the tested peptides were added to final concentrations ranging from 0.39 µg/mL to 25 µg/mL. […] Fluorescence was read with excitation wavelength set at 485 nm and emission wavelengths set at 530 nm (for green dye) and 630 nm (red dye) by means of CLARIOstar®® plate reader (BMG LABTECH, Germany).", "note": "Where a SMILES comes first, the peptide text is derived from it. The star is where a group is joined. Lauroyl = CCCCCCCCCCCC(=O)*", "data": [{"smiles": "CCCCCCCCCCCC(=O)N[C@H](C(=O)N[C@@H](CCCCN)C(=O)N[C@@H](CCCCN)C(=O)N[C@H](C(=O)N[C@@H](CC(C)C)C(=O)N[C@@H](CO)C(=O)N[C@@H](CCCCN)C(=O)N[C@H](C(=O)N[C@@H](CCCCN)C(=O)N[C@@H](CCCCN)C(=O)N[C@@H](CC(C)C)C(=O)N[C@@H](CC(C)C)C(N)=O)[C@@H](C)CC)[C@@H](C)CC)[C@@H](C)CC", "note": "[Compound C12-DK5] (Lauroyl-IKKILSKIKKLL-NH2)", "values": [{"measurement": "relative viability of S. aureus (live/dead)", "result": "most active"}]}]}
